Experimental data taken from the supplement of paper PMC10627819.

Key:
S. aureus Newman = assay: fitness (endpoint OD595 vs no drug) (fraction); higher = more growth
Outline: (§1)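 Growth medium was TSB, LB Lennox or CY, and plates were kept at 37 °C. Inoculation was at OD595 0.01 in 384-well plates, at 30 µl per well or 55 µl for S. pneumoniae. OD595 was monitored every 30 min for 14 h and background-subtracted using the first reading. Fitness is the optical density on entering stationary phase divided by the robust mean of no-drug controls, with values capped at 1.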

B. subtilis 168 = assay: as above
Outline: as §1
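Note: OD595 on entry to stationary phase over no-drug wells; at most 1.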

C/C(=C\C(=O)OCCCCCCCCC(=O)O)C[C@@H]1OC[C@H](C[C@@H]2O[C@H]2[C@@H](C)[C@H](C)O)[C@@H](O)[C@H]1O [Pseudomonic acid] + CC1(C)S[C@@H]2[C@H](NC(=O)Cc3ccccc3)C(=O)N2[C@H]1C(=O)O [Penicillin G]
fitness, S. aureus Newman, one replicate
Conditions | first compound 0.0313 µg/mL | first compound 0.0625 µg/mL | first compound 0.125 µg/mL
partner 0.0195 µg/mL | 0.0428 | 0.0466 | 0.0353
partner 0.039 µg/mL | 0.0545 | 0.0468 | 0.0403
partner 0.078 µg/mL | 0.069 | 0.0571 | 0.0351

O=C(N[C@H](CO)[C@H](O)c1ccc([N+](=O)[O-])cc1)C(Cl)Cl [Chloramphenicol] + CO/N=C(\C(=O)N[C@@H]1C(=O)N2C(C(=O)O)=C(COC(N)=O)CS[C@H]12)c1ccco1 [Cefuroxime]
fitness, S. aureus Newman, one replicate
Conditions | first compound 0.75 µg/mL | first compound 1.5 µg/mL | first compound 3 µg/mL
partner 0.04875 µg/mL | 0.808 | 0.377 | –
partner 0.0975 µg/mL | 0.697 | 0.312 | 0.0949
partner 0.195 µg/mL | 0.64 | 0.206 | 0.065

N[C@@H]1CONC1=O [Cycloserine D] + CC1(C)S[C@@H]2[C@H](NC(=O)Cc3ccccc3)C(=O)N2[C@H]1C(=O)O [Penicillin G]
fitness, S. aureus Newman
Conditions | first compound 0.375 µg/mL | first compound 0.75 µg/mL | first compound 1.5 µg/mL
partner 0.0195 µg/mL | 0.966 | 0.916 | 0.892
partner 0.039 µg/mL | 0.922 | 0.932 | 0.957
partner 0.078 µg/mL | 0.886 | 0.923 | 0.854

CCC[C@@H]1C[C@@H](C(=O)N[C@@H]([C@H]2O[C@H](SC)[C@H](O)[C@@H](O)[C@H]2O)[C@H](C)Cl)N(C)C1 [Clindamycin] + CC1(C)S[C@@H]2[C@H](NC(=O)Cc3ccccc3)C(=O)N2[C@H]1C(=O)O [Penicillin G]
fitness, S. aureus Newman
Conditions | first compound 0.0312 µg/mL | first compound 0.0625 µg/mL | first compound 0.125 µg/mL
partner 0.0195 µg/mL | 0.639 | 0.416 | 0.0886
partner 0.039 µg/mL | 0.708 | – | 0.0624
partner 0.078 µg/mL | – | – | 0.0543

COc1c(N2C[C@@H]3CCCN[C@@H]3C2)c(F)cc2c(=O)c(C(=O)O)cn(C3CC3)c12 [Moxifloxacin] + CC1(C)S[C@@H]2[C@H](NC(=O)Cc3ccccc3)C(=O)N2[C@H]1C(=O)O [Penicillin G]
fitness, S. aureus Newman
Conditions | first compound 0.0075 µg/mL | first compound 0.015 µg/mL | first compound 0.03 µg/mL
partner 0.0195 µg/mL | 0.722 | 0.625 | 0.081
partner 0.039 µg/mL | 0.706 | – | 0.059
partner 0.078 µg/mL | 0.721 | 0.596 | 0.0633

O=C(N[C@H](CO)[C@H](O)c1ccc([N+](=O)[O-])cc1)C(Cl)Cl [Chloramphenicol] + CC1=C(C(=O)O)N2C(=O)[C@@H](NC(=O)[C@H](N)c3ccccc3)[C@H]2SC1 [Cephalexin]
fitness, S. aureus Newman
Conditions | partner 0.25 µg/mL | partner 0.5 µg/mL | partner 1 µg/mL
first compound 0.75 µg/mL | 0.792 | 0.891 | 0.908
first compound 3 µg/mL | – | 0.312 | –

N[C@@H]1CONC1=O [Cycloserine D] + CN(C)c1cc(NC(=O)CNC(C)(C)C)c(O)c2c1C[C@H]1C[C@H]3[C@H](N(C)C)C(O)=C(C(N)=O)C(=O)[C@@]3(O)C(O)=C1C2=O [Tigecycline]
fitness
Conditions | first compound 0.125 µg/mL | first compound 0.25 µg/mL | first compound 0.375 µg/mL | first compound 0.5 µg/mL | first compound 0.75 µg/mL | first compound 1.5 µg/mL
B. subtilis 168, partner 0.039 µg/mL | 0.944 | 0.987 | – | ≥ 1 | – | –
B. subtilis 168, partner 0.078 µg/mL | 0.955 | 0.867 | – | 0.912 | – | –
B. subtilis 168, partner 0.156 µg/mL | 0.914 | 0.911 | – | 0.982 | – | –
S. aureus Newman, partner 0.039 µg/mL | – | – | 0.956 | – | 0.936 | 0.931
S. aureus Newman, partner 0.078 µg/mL | – | – | 0.981 | – | ≥ 1 | 0.994
S. aureus Newman, partner 0.156 µg/mL | – | – | 0.986 | – | 0.983 | 0.971

fitness, B. subtilis 168, one replicate
Conditions | first compound 0.125 µg/mL | first compound 0.25 µg/mL | first compound 0.5 µg/mL
partner 0.125 µg/mL | ≥ 1 | ≥ 1 | 0.994
partner 0.25 µg/mL | ≥ 1 | 0.97 | 0.922
partner 0.5 µg/mL | 0.944 | 0.94 | ≥ 1

N[C@@H]1CONC1=O [Cycloserine D] + CC1=C(C(=O)O)N2C(=O)[C@@H](NC(=O)[C@H](N)c3ccccc3)[C@H]2SC1 [Cephalexin]
fitness
Conditions | first compound 0.125 µg/mL | first compound 0.25 µg/mL | first compound 0.375 µg/mL | first compound 0.5 µg/mL | first compound 0.75 µg/mL | first compound 1.5 µg/mL
B. subtilis 168, partner 0.125 µg/mL | 0.865 | 0.894 | – | 0.848 | – | –
B. subtilis 168, partner 0.25 µg/mL | 0.909 | 0.857 | – | 0.921 | – | –
B. subtilis 168, partner 0.5 µg/mL | 0.911 | 0.88 | – | 0.867 | – | –
S. aureus Newman, partner 0.25 µg/mL | – | – | 0.948 | – | 0.955 | 0.926
S. aureus Newman, partner 0.5 µg/mL | – | – | 0.972 | – | ≥ 1 | 0.971
S. aureus Newman, partner 1 µg/mL | – | – | 0.992 | – | ≥ 1 | 0.995

B. subtilis 168, partner 1 µg/mL, one replicate
Conditions | fitness
first compound 0.125 µg/mL | ≥ 1
first compound 0.25 µg/mL | 0.91
first compound 0.5 µg/mL | 0.985
